Data published in patent publication US10239849B2 (Merck Sharp & Dohme Corp., priority 2015, dated 2019).

Assays:
[1] = molecular target: T1, glutathione-S-transferase (GST) tagged LXRbeta LBD (ligand binding domain) (Homo sapiens, UniProt P55055); assay: LanthaScreen TR-FRET Liver X Receptor Coactivator Assay, LXR beta-LBD; assay type: biochemical; conditions: for Emax: efficacy in relation to reference dual agonist T1317, read-out: LXR beta activity at max dose (%) (Emax); for EC50: potency (Inflection Point) of co-activator recruitment, TR-FRET, read-out: LXR beta IP
T1 construct: purchased Invitrogen pv4658.pps
T1 sequence (P55055 222-460 limits assumed): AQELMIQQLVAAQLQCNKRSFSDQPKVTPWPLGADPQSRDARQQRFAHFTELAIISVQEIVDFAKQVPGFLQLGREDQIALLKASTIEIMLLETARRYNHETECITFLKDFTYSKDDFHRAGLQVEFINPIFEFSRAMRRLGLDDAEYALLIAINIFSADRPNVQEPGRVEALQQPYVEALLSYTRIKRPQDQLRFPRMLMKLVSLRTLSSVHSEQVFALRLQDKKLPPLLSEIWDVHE
Procedure, shortened: (§1)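 LXR alpha- or beta-LBD was added to test compounds, then a mix of fluorescein-labelled coactivator peptide and terbium anti-GST antibody. After room-temperature incubation, TR-FRET was read on a filter-based reader.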

[2] = molecular target: T2, glutathione-S-transferase (GST) tagged LXRalpha LBD (ligand binding domain) (Homo sapiens, UniProt Q13133); assay: LanthaScreen TR-FRET Liver X Receptor Coactivator Assay, LXR alpha-LBD; assay type: biochemical; conditions: for Emax: efficacy in relation to reference dual agonist T1317, read-out: LXR alpha activity at max dose (%) (Emax); for EC50: potency (Inflection Point) of co-activator recruitment, TR-FRET, read-out: LXR alpha IP
T2 construct: purchased Invitrogen pv4655
T2 sequence (Q13133 209-447 limits assumed): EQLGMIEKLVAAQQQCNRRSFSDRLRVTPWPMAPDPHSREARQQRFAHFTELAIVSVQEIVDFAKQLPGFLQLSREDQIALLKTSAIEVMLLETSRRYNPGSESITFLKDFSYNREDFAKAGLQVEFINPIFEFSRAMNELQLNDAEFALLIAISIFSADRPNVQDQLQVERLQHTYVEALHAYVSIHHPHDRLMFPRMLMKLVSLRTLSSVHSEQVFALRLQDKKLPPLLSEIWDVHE
Procedure, shortened: as §1

| Emax [1] | EC50 [1] | Emax [2] | EC50 [2] | SMILES |
| --- | --- | --- | --- | --- |
| 68% | 0.064 µM | 38% | 0.882 µM | CN(C)C(=O)c1ccc(-c2cnc(N3CC4CCC3CN4C(=O)OC(C)(C)C)c(C#N)c2)cc1Cl (stereo not shown) [Example 8-8, tert-butyl 5-{5-[3-chloro-4-(dimethylcarbamoyl)phenyl]-3-cyanopyridin-2-yl}-2,5-diazabicyclo[2.2.2]octane-2-carboxylate] |
| 73% | 1.66 µM | 30% | 10.8 µM | CN(C)C(=O)c1ccc(-c2cnc(N3CCN(C(=O)OC(C)(C)C)CC3)c(C#N)c2)cc1C(F)(F)F [Example 8-9, tert-butyl 4-{3-cyano-5-[4-(dimethylcarbamoyl)-3-(trifluoromethyl)phenyl]pyridin-2-yl}piperazine-1-carboxylate] |
| 70% | 0.006 µM | 40% | 0.954 µM | CN(C)C(=O)c1ccc(-c2cnc(N3CCN(C(=O)OC(C)(C)C)C(c4ccccc4)C3)c(C#N)c2)cc1Cl (stereo not shown) [Example 8-12, tert-butyl 4-{5-[3-chloro-4-(dimethylcarbamoyl)phenyl]-3-cyanopyridin-2-yl}-2-phenylpiperazine-1-carboxylate] |
| 120% | 0.018 µM | 78% | 0.538 µM | CN(C)C(=O)c1ccc(-c2cnc(N3CCN(C(=O)OC(C)(C)C)CC3Cc3ccccc3)c(C#N)c2)cc1Cl (stereo not shown) [Example 8-13, tert-butyl 3-benzyl-4-{5-[3-chloro-4-(dimethylcarbamoyl)phenyl]-3-cyanopyridin-2-yl}piperazine-1-carboxylate] |
| 81% | 0.177 µM | 54% | 3.89 µM | CN(C)C(=O)c1ccc(-c2ccc(N3CCN(C(=O)OC(C)(C)C)CC3)c(C#N)c2)cc1Cl [Example 8-15, tert-butyl 4-[3′-chloro-3-cyano-4′-(dimethylcarbamoyl)biphenyl-4-yl]piperazine-1-carboxylate] |
| 71% | 0.424 µM | 41% | 7.47 µM | CCc1cc(-c2cnc(N3CCN(C(=O)OC(C)(C)C)CC3)c(C#N)c2)ccc1C(=O)N(C)C [Example 8-17, tert-butyl 4-{3-cyano-5-[4-(dimethylcarbamoyl)-3-ethylphenyl]pyridin-2-yl}piperazine-1-carboxylate] |

Further lines, the molecule ahead of its results:

| SMILES | Emax [1] | EC50 [1] | Emax [2] | EC50 [2] |
| --- | --- | --- | --- | --- |
| CN(C)C(=O)c1ccc(-c2ccc(N3CC4CCC(C3)N4C(=O)OC(C)(C)C)c(Cl)c2)cc1Cl [Example 8-10, tert-butyl 3-[3,3′-dichloro-4′-(dimethylcarbamoyl)biphenyl-4-yl]-3,8-diazabicyclo[3.2.1]octane-8-carboxylate] | 63% | 0.07 µM | 64% | 0.66 µM |
| CN(C)C(=O)c1ccc(-c2cnc(N3C4CCC3C3CCC4N3C(=O)OC(C)(C)C)c(C#N)c2)cc1Cl [Example 8-11, tert-butyl 10-{5-[3-chloro-4-(dimethylcarbamoyl)phenyl]-3-cyanopyridin-2-yl}-9,10-diazatricyclo[4.2.1.1~2,5~]decane-9-carboxylate] | 57% | 1.05 µM | 41% | 10.9 µM |
| CN(C)C(=O)c1ccc(-c2ccc(N3CC4CCC(C3)N4S(=O)(=O)c3c(Cl)cccc3Cl)cc2)cc1Cl [Example 8-14, 3-chloro-4′-{8-[(2,6-dichlorophenyl)sulfonyl]-3,8-diazabicyclo[3.2.1]oct-3-yl}-N,N-dimethylbiphenyl-4-carboxamide] | 118% | 0.076 µM | 37% | 3.47 µM |
| CN(C)C(=O)c1ccc(-c2ccc(N3CC4CCC(C3)N4S(=O)(=O)c3c(Cl)cccc3Cl)c(Cl)c2)cc1Cl [Example 8-16, 3,3′-dichloro-4′-{8-[(2,6-dichlorophenyl)sulfonyl]-3,8-diazabicyclo[3.2.1]oct-3-yl}-N,N-dimethylbiphenyl-4-carboxamide] | 82% | 0.037 µM | 79% | 0.569 µM |
